Test results taken from PubChem BioAssay (NCI).
Where “and” joins values, the source holds several entries; their conditions need not be identical. Equal values may be shown once.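 All cell lines were grown in 96-well plates and treated with compound for 48 hours. Here, GI50 denotes the concentration required for 50% inhibition of growth. TGI: total growth inhibition.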

What was measured:
Assay in all cases: NCI anticancer screen, dose series, 48 h
NCI-H23 lung = tested on: NCI-H23 lung
EKVX NSCLC = tested on: EKVX NSCLC
KM12 colon = tested on: KM12 colon
786-0 renal = tested on: 786-0 renal
NCI-H522 lung = tested on: NCI-H522 lung
HCT-15 colon = tested on: HCT-15 colon
SN12C renal = tested on: SN12C renal
HOP-62 NSCLC = tested on: HOP-62 NSCLC
SK-MEL-2 melanoma = tested on: SK-MEL-2 melanoma
MDA-MB-231 breast = tested on: MDA-MB-231 breast

Row | SMILES | TGI (NCI-H23 lung) | TGI (EKVX NSCLC) | TGI (KM12 colon) | TGI (786-0 renal) | TGI (NCI-H522 lung) | TGI (HCT-15 colon) | TGI (SN12C renal) | TGI (HOP-62 NSCLC) | TGI (SK-MEL-2 melanoma) | GI50 (SK-MEL-2 melanoma) | GI50 (NCI-H23 lung) | GI50 (KM12 colon) | GI50 (786-0 renal) | GI50 (NCI-H522 lung) | GI50 (HCT-15 colon) | TGI (MDA-MB-231 breast) | GI50 (SN12C renal) | GI50 (MDA-MB-231 breast) | GI50 (HOP-62 NSCLC) | GI50 (EKVX NSCLC)
1 | CN(C)CCC(=O)N1CCc2c([nH]c3ccccc23)C1c1cccnc1 (centres undefined) | > 100 µM | > 100 µM | > 100 µM | > 100 µM | > 100 µM | > 100 µM | > 100 µM | > 100 µM | – | – | – | – | – | – | – | – | – | – | – | –
2 | O=C1[C@@H]2C(c3ccncc3)=NO[C@@H]2C(=O)N1c1ccc(Cc2ccc(N3C(=O)[C@H]4C(c5ccncc5)=NO[C@H]4C3=O)cc2)cc1 | > 100 µM | > 100 µM | > 100 µM | > 100 µM | – | > 100 µM | > 100 µM | > 100 µM | > 100 µM | – | – | – | – | – | – | – | – | – | – | –
3 | Cc1ccc(S(=O)(=O)N[C@@H](Cc2ccccc2)C(=O)CCl)cc1 | 51.4 µM | 36 µM | 38 µM | 27 µM | 37.1 µM | 27.5 µM | – | 39.8 µM | 35.8 µM | 15 µM | 20.5 µM | 18.2 µM | 10.6 µM | 11.5 µM | 10.8 µM | – | – | – | – | –
4 | COC(=O)[C@@H]1[C@H](O)[C@H](C)[C@H](O)[C@H](C)/C=C\C=C(C)C(=O)Nc2c(C)c(OC(C)=O)c3c(c2O)C(=O)C(C)=C2OCOC(=C23)C(C)=C[C@@](C)(O)[C@H](O)[C@@H](C)[C@H]1OC(C)=O | > 100 µM | > 100 µM | > 100 µM | > 100 µM | – | – | > 100 µM | > 100 µM | – | – | – | – | – | – | – | > 100 µM | – | – | – | –
5 | Cc1cccc2cc3cccc(C(=O)NCCN(C)C)c3nc12 | 1.17 µM | 1.69 µM | 6.12 µM | 11.5 µM | 1.19 µM | 1.5 µM | 1.02 µM | 0.502 µM | 1.85 µM | – | – | – | – | – | – | – | – | – | – | –
6 | Cc1nc2ccccc2c(/C=C/c2ccccc2)c1C(=O)/C=C/c1ccc(Cl)cc1 | – | – | 4.78 µM | 2.99 µM | – | – | 4.39 µM | – | – | – | – | 1.86 µM | 1.58 µM | – | – | 4 µM | 1.71 µM | 1.46 µM | – | –
7 | COc1ccc(C(=O)C/C(=N/NC(N)=S)C(=O)Nc2ccccc2)cc1 | > 100 µM | > 100 µM | > 100 µM | > 100 µM | – | > 100 µM | > 100 µM | – | > 100 µM | – | – | – | – | – | – | – | – | – | – | –
8 | CCOC(=O)C1=C(c2ccccc2)NC(c2ccccc2)=C(C(=O)OCC)c2c1c(=O)cc[nH]c2=O | > 100 µM | – | > 100 µM | > 100 µM | > 100 µM | > 100 µM | > 100 µM | > 100 µM | > 100 µM | – | – | – | – | – | – | – | – | – | – | –
9 | NC(=NCCO)c1ccc(N2CCCN(c3ccc(C(N)=NCCO)cc3)CC2)cc1 | > 100 µM | – | > 100 µM | > 100 µM | – | > 100 µM | > 100 µM | > 100 µM | – | – | > 100 µM | > 100 µM | > 100 µM | – | > 100 µM | > 100 µM | 8.8 µM | > 100 µM | 91.7 µM | –
10 | CN(C)CCC(/C=C/c1ccccc1)=N\Nc1ccc(Cl)cc1 | 20.9 µM | 11.4 µM | 10.9 µM | 6.26 µM | 7.77 µM | 15.2 µM | 7.03 µM | 4.07 µM | 4.4 µM | – | – | – | – | – | – | – | – | – | – | –
11 | CCOC(=O)C1=C(C)N(NC(=O)OC)C2(N)N(NC(=O)OC)C(C)=C(C(=O)OCC)C12C#N (centres undefined) | – | > 100 µM | > 100 µM | > 100 µM | > 100 µM | > 100 µM | > 100 µM | > 100 µM | > 100 µM | – | – | – | – | – | – | – | – | – | – | –
12 | O=C(Nc1cc(C(F)(F)F)cc(C(F)(F)F)c1)Nc1ccc(OCc2nnc(-c3ccc(Cl)cc3)o2)c(F)c1 | 6.26 µM | – | 5.72 µM | 4.68 µM | – | 14 µM | 15.7 µM | 6.12 µM | 6.26 µM | 2.73 µM | 1.88 µM | 1 µM | 2 µM | – | 1.99 µM | 4.93 µM | 2.61 µM | 1.99 µM | 2.11 µM | –
13 | Cc1cc(Cl)ccc1N1C(=O)C(=O)C(c2nc3ccccc3o2)C(=O)C1=O | > 100 µM | > 100 µM | > 100 µM | > 100 µM | > 100 µM | > 100 µM | > 100 µM | > 100 µM | > 100 µM | – | – | – | – | – | – | – | – | – | – | –
14 | Cc1cccc(Cl)c1NC(=O)c1cccc([N+](=O)[O-])c1O | 85.1 µM | > 100 µM | 66 µM | > 100 µM | 50.4 µM | > 100 µM | > 100 µM | 54.4 µM | – | – | – | – | – | – | – | – | – | – | – | –
15 | CC(=O)OCC1OC(n2c(=S)n(-c3ccccc3)c(=O)c3cc(Br)ccc32)C(OC(C)=O)C(OC(C)=O)C1OC(C)=O (centres undefined) | > 100 µM | > 100 µM | > 100 µM | > 100 µM | > 100 µM | > 100 µM | > 100 µM | > 100 µM | > 100 µM | 47 µM and > 100 µM | – | – | – | – | – | – | – | – | – | –
16 | O=[N+]([O-])c1ccc2nc3ccscc-3c2c1 | 70.2 µM | > 100 µM | 83.6 µM | > 100 µM | 59.9 µM | > 100 µM | – | 69.4 µM | 77.7 µM | – | – | – | – | – | – | – | – | – | – | –
17 | C/C=C/C=C/CCCCCCCCCCCCC[C@]1(OC)C=CC(CC(=O)OC)OO1 (some centres undefined) | 36.8 µM | 57.6 µM | 36.3 µM | 33.4 µM | 16.6 µM | 29.5 µM | 48 µM | > 100 µM | 69.5 µM | – | 19.1 µM | 17.9 µM | 17.1 µM | 3.8 µM | 16 µM | – | – | – | 43.9 µM | 26.3 µM
18 | CC(=O)Oc1ccccc1C(=O)NCCC[Se]C#N | 7.57 µM | – | 16.7 µM | 4.38 µM | 3.5 µM | 5.06 µM | 12.4 µM | 2.92 µM | 5.64 µM | 2.55 µM | 2.58 µM | 2.84 µM | 2.1 µM | 1.62 µM | 2.08 µM | – | 3.2 µM | – | 1.51 µM | –
19 | C=C[Si](C)(C)COC(=O)/C(C#N)=C/C=C/c1ccccc1 | > 100 µM | > 100 µM | > 100 µM | > 100 µM | > 100 µM | > 100 µM | > 100 µM | > 100 µM | > 100 µM | – | – | – | – | – | – | – | – | – | – | –
20 | NC1=NCC(c2ccccn2)C1c1ccc(F)cc1 (centres undefined) | > 100 µM | > 100 µM | > 100 µM | > 100 µM | > 100 µM | – | > 100 µM | > 100 µM | > 100 µM | – | – | – | – | – | – | – | – | – | – | –
21 | Cc1ccccc1NC(=O)C(=O)CC(=O)C1CCOC1=O (centres undefined) | > 100 µM | > 100 µM | > 100 µM | > 100 µM | > 100 µM | > 100 µM | > 100 µM | > 100 µM | > 100 µM | – | – | – | – | – | – | – | – | – | – | –
22 | CC1(C)Cc2nnsc2C2=C1C(=O)CCS2 | > 100 µM | > 100 µM | > 100 µM | > 100 µM | > 100 µM | > 100 µM | > 100 µM | > 100 µM | > 100 µM | – | – | – | – | – | – | – | – | – | – | –
23 | Cc1cccc(C)c1NC(=O)CCCC(=O)C(C#N)c1ccc(Cl)cc1 (centres undefined) | > 100 µM | > 100 µM | > 100 µM | > 100 µM | > 100 µM | > 100 µM | > 100 µM | > 100 µM | > 100 µM | – | – | – | – | – | – | – | – | – | – | –
24 | C=C(CN(C)Cc1ccccc1)c1ccc(C(=O)Nc2ccccc2N)cc1 | 7.93 µM | 37.9 µM | 7.26 µM | 27.3 µM | – | 12.2 µM | – | > 50 µM | 40.5 µM | 8.73 µM | 0.397 µM | 1.23 µM | 5.21 µM | – | 2.2 µM | 5.78 µM | – | 0.739 µM | 3.61 µM | 8.17 µM
25 | C[CH2][Ge]([CH2]C)([CH2]C)[O]C(=O)C([O][Ge]([CH2]C)([CH2]C)[CH2]C)c1ccccc1 (centres undefined) | 44.3 µM | 75.1 µM | 26.1 µM | 74.3 µM | 27.3 µM | 30 µM | 82.8 µM | 42.8 µM | – | – | 10.1 µM | 11.9 µM | 22.4 µM | 11 µM | 14 µM | – | 18.2 µM | – | 19.5 µM | 9.4 µM
26 | COc1ccc(C2N3CCCCC3[C@@H]3c4[nH]c5ccccc5c4CCN23)c(OC)c1 (some centres undefined) | 58.7 µM | > 100 µM | – | > 100 µM | – | > 100 µM | 33.8 µM | > 100 µM | 34.7 µM | – | – | – | – | – | – | – | – | – | – | –
27 | CC(C)(C)c1cc(-c2c3nc(c(-c4cc(C(C)(C)C)cc(C(C)(C)C)c4)c4ccc([nH]4)c(-c4cc(C(C)(C)C)cc(C(C)(C)C)c4)c4nc(c(-c5cc(C(C)(C)C)cc(C(C)(C)C)c5)c5ccc2[nH]5)C=C4)C=C3)cc(C(C)(C)C)c1 | > 100 µM | > 100 µM | > 100 µM | > 100 µM | > 100 µM | > 100 µM | > 100 µM | > 100 µM | > 100 µM | – | – | – | – | – | – | – | – | – | – | –
28 | O=C(Nc1nc(-c2ccccc2)cs1)c1cc(O)c(O)c(O)c1 | 51.5 µM | – | 26.9 µM | 10.6 µM | 1.23 µM | > 100 µM | 29.9 µM | 30.6 µM | – | – | 4.36 µM | 8.02 µM | 3.38 µM | 0.337 µM | 3.14 µM | 24.4 µM | 3.19 µM | 1.58 µM | 5.73 µM | –
29 | CC1NCCc2c1[nH]c1cc(O)ccc21 (centres undefined) | > 100 µM | > 100 µM | > 100 µM | > 100 µM | – | > 100 µM | > 100 µM | > 100 µM | > 100 µM | – | – | – | – | – | – | – | – | – | – | –
